Test results published in US4156016A, “Indole compounds and process for their preparation” (Hoffmann-La Roche Inc., priority 1977, dated 1979).
Read-outs that look alike come from different tables or passages of the source.

Assays:
[1] = test system: arachidonic acid induced diarrhea; assay: Arachidonic acid diarrhea prevention (mice); type: in vivo, Carworth Farm CF-1 male mice; conditions: Mus musculus, po
Protocol: Carworth Farm CF-1 male mice weighing 18-20 grams were administered the test compound by either the oral or intraperitoneal route one hour prior to the intraperitoneal administration of 4 mg/kg of arachidonic acid (Hoffmann-La Roche Inc.). […] The diarrhea was graded on paper towels as follows: 0=solid pellet or no bowel movement; 1=slightly soft pellet with little or no wet ring formation; 2=moderately soft pellet with definite wet ring formation; 3=soft pellet with large wet ring formation; and 4=amorphous pellet with very large wet ring formation.
The calculation of the ED50 was made according to the method of Miller et al., Proc. Soc.

[2] = test system: Collagen-Induced Platelet Aggregation; assay: Effect of compounds in whole blood: collagen-induced platelet aggregation after incubation in whole blood; type: cell-based, human; conditions: for Δ light transmission: mean of duplicate determinations; for inhibition at 1 µM / inhibition at 5 µM / inhibition at 10 µM / inhibition at 25 µM / inhibition at 50 µM / inhibition at 100 µM: read-out: percent inhibition
Protocol: Aliquots of citrated human blood (10 ml.) were exposed to different concentrations of the "nitrile" by mechanically shaking at room temperature for 5 minutes.

[3] = test system: prostaglandin formation; assay: Inhibition of prostaglandin formation (general statement)
[4] = Acute toxicity in mice; conditions: mouse, in vivo
Protocol: CF-IS mice of both sexes weighing 17-25 grams were used. The compounds were ground in a mortar and suspended in 5% gum acacia for oral or intraperitoneal administration. Eight to ten mice were used per dose level. […] The LD50 was calculated by the method of Miller et al., Proc. Soc. Exp. Biol. Med., 57, pages 261-264 (1944).

[5] = Ulcerogenicity (general statement)
[6] = test system: Epinephrine induced aggregation; assay: Inhibition of epinephrine-induced platelet aggregation (second wave) in human platelet-rich plasma; type: cell-based; conditions: for inhibition at 10 µM / inhibition at 20 µM / inhibition at 25 µM / inhibition at 50 µM / inhibition at 100 µM: Homo sapiens, Platelet, read-out: Percent Inhibition
Protocol: (§1) Venous blood was collected from human volunteers in siliconized 20 ml. […] Platelet rich plasma (PRP) was separated from the red blood cells by centrifugation at 180×g for 15 minutes at room temperature. Platelet poor plasma (PPP) was prepared by centrifuging PRP at 1000×g for 2 minutes.
(§2) Techniques established by Born et al., J. Physiol. […] PRP (1 ml.) was added to a siliconized cuvette containing a siliconized stirring bar and placed in a densitometer maintained at 37° C. and stirred at 1000 RPM. Various concentrations of test compounds were added in 50 μl of saline and incubated with PRP for 5 minutes. Aggregation was initiated by the addition of sufficient concentrations of ADP (Sigma Chemical Co.), epinephrine HCl (Parke, Davis & Co., Detroit, Michigan), or human mammary gland collagen (obtained from Roosevelt Hospital, N.Y.) to give about 60% of maximum aggregation response. The light transmission through PPP was used to determine maximum response. The percent inhibition of aggregation caused by the drug was calculated from the strip chart recordings at the point of maximum collagen response.

[7] = Central and peripheral pharmacological activity (statement)
[8] = test system: ADP induced aggregation; assay: Inhibition of ADP-induced platelet aggregation (second wave) in human platelet-rich plasma; type: cell-based; conditions: for inhibition at 2.5 µM / inhibition at 5 µM / inhibition at 10 µM / inhibition at 20 µM / inhibition at 50 µM: Homo sapiens, Platelet, read-out: Percent Inhibition
Protocol: as §1, §2

[9] = test system: serum PGF2α; assay: Inhibition of prostaglandin formation: serum PGF2α by radioimmunoassay (rats); type: in vivo, male rats; conditions: for ED50: Rattus norvegicus, 1 h, rats
[10] = test system: human blood-platelet aggregation; assay: Inhibition of human blood-platelet aggregation (general statement)
[11] = incubation in human citrated platelet-rich plasma

N#Cc1[nH]c2ccc(C(O)(C(F)(F)F)C(F)(F)F)cc2c1-c1ccccc1 [nitrile, 3-Phenyl-5-[2,2,2-trifluoro-1-hydroxy-1-(trifluoromethyl)ethyl]indole-2-carbonitrile]
ED50 [1]: 5 mg/kg | Δ light transmission ([2]; 1 μM, Expt. I): 18 units | Δ light transmission ([2]; 1 μM, Expt. II): 19 units | Δ light transmission ([2]; 1 μM, Expt. III): 27 units | Δ light transmission ([2]; 5 μM, Expt. I): 14 units | Δ light transmission ([2]; 5 μM, Expt. II): 15 units | Δ light transmission ([2]; 5 μM, Expt. III): 20 units | Δ light transmission ([2]; 10 μM, Expt. I): 13 units | Δ light transmission ([2]; 10 μM, Expt. II): 13 units | Δ light transmission ([2]; 10 μM, Expt. III): 17 units | Δ light transmission ([2]; 25 μM, Expt. I): 9 units | Δ light transmission ([2]; 25 μM, Expt. II): 10 units | Δ light transmission ([2]; 25 μM, Expt. III): 13 units | Δ light transmission ([2]; 50 μM, Expt. I): 8 units | Δ light transmission ([2]; 50 μM, Expt. II): 9 units | Δ light transmission ([2]; 50 μM, Expt. III): 10 units | Δ light transmission ([2]; 100 μM, Expt. I): 4 units | Δ light transmission ([2]; 100 μM, Expt. II): 4 units | Δ light transmission ([2]; 100 μM, Expt. III): 6 units | inhibition at 1 µM ([2]; Homo sapiens, Platelet, 1 μM, Expt. I): 10% | inhibition at 1 µM ([2]; Homo sapiens, Platelet, 1 μM, Expt. II): 9.5% | inhibition at 1 µM ([2]; Homo sapiens, Platelet, 1 μM, Expt. III): 10% | inhibition at 5 µM ([2]; Homo sapiens, Platelet, 5 μM, Expt. I): 30% | inhibition at 5 µM ([2]; Homo sapiens, Platelet, 5 μM, Expt. II): 29% | inhibition at 5 µM ([2]; Homo sapiens, Platelet, 5 μM, Expt. III): 33% | inhibition at 10 µM ([2]; Homo sapiens, Platelet, 10 μM, Expt. I): 35% | inhibition at 10 µM ([2]; Homo sapiens, Platelet, 10 μM, Expt. II): 38% | inhibition at 10 µM ([2]; Homo sapiens, Platelet, 10 μM, Expt. III): 43% | inhibition at 25 µM ([2]; Homo sapiens, Platelet, 25 μM, Expt. I): 55% | inhibition at 25 µM ([2]; Homo sapiens, Platelet, 25 μM, Expt. II): 52% | inhibition at 25 µM ([2]; Homo sapiens, Platelet, 25 μM, Expt. III): 57% | inhibition at 50 µM ([2]; Homo sapiens, Platelet, 50 μM, Expt. I): 60% | inhibition at 50 µM ([2]; Homo sapiens, Platelet, 50 μM, Expt. II): 57% | inhibition at 50 µM ([2]; Homo sapiens, Platelet, 50 μM, Expt. III): 67% | inhibition at 100 µM ([2]; Homo sapiens, Platelet, 100 μM, Expt. I): 80% | inhibition at 100 µM ([2]; Homo sapiens, Platelet, 100 μM, Expt. II): 81% | inhibition at 100 µM ([2]; Homo sapiens, Platelet, 100 μM, Expt. III): 80% | IC50 ([2]; Homo sapiens, Platelet, incubation in whole blood): 25 µM | inhibition of prostaglandin formation (in words) [3]: inhibit prostaglandin formation | LD50 at 120 h ([4]; ip): 750 mg/kg | LD50 at 120 h ([4]; po): > 1000 mg/kg | ulcerogenicity (in words) [5]: non-ulcerogenic | Δ light transmission ([6]; 10 μM, Expt. I): 45 units | Δ light transmission ([6]; 10 μM, Expt. II): 47 units | Δ light transmission ([6]; 20 μM, Expt. I): 30 units | Δ light transmission ([6]; 20 μM, Expt. II): 34 units | Δ light transmission ([6]; 25 μM, Expt. I): 25 units | Δ light transmission ([6]; 25 μM, Expt. II): 30 units | Δ light transmission ([6]; 50 μM, Expt. I): 18 units | Δ light transmission ([6]; 50 μM, Expt. II): 14 units | Δ light transmission ([6]; 100 μM, Expt. I): 11 units | Δ light transmission ([6]; 100 μM, Expt. II): 9 units | inhibition at 10 µM ([6]; 10 μM, Expt. I): 0% | inhibition at 10 µM ([6]; 10 μM, Expt. II): 6% | inhibition at 20 µM ([6]; 20 μM, Expt. I): 33.3% | inhibition at 20 µM ([6]; 20 μM, Expt. II): 32% | inhibition at 25 µM ([6]; 25 μM, Expt. I): 44.4% | inhibition at 25 µM ([6]; 25 μM, Expt. II): 40% | inhibition at 50 µM ([6]; 50 μM, Expt. I): 60% | inhibition at 50 µM ([6]; 50 μM, Expt. II): 71% | inhibition at 100 µM ([6]; 100 μM, Expt. I): 75% | inhibition at 100 µM ([6]; 100 μM, Expt. II): 82% | IC50 [6, 11]: 40 µM | central and peripheral pharmacological activity (in words) [7]: devoid of central and peripheral pharmacological activity | Δ light transmission ([8]; 2.5 μM, Expt. I): 60 units | Δ light transmission ([8]; 2.5 μM, Expt. II): 54 units | Δ light transmission ([8]; 5 μM, Expt. I): 50 units | Δ light transmission ([8]; 5 μM, Expt. II): 44 units | Δ light transmission ([8]; 10 μM, Expt. I): 11 units | Δ light transmission ([8]; 10 μM, Expt. II): 14 units | Δ light transmission ([8]; 20 μM, Expt. I): 0 units | Δ light transmission ([8]; 20 μM, Expt. II): 0 units | Δ light transmission ([8]; 50 μM, Expt. I): 0 units | Δ light transmission ([8]; 50 μM, Expt. II): 0 units | inhibition at 2.5 µM ([8]; 2.5 μM, Expt. I): 0% | inhibition at 2.5 µM ([8]; 2.5 μM, Expt. II): 1.8% | inhibition at 5 µM ([8]; 5 μM, Expt. I): 16.7% | inhibition at 5 µM ([8]; 5 μM, Expt. II): 20% | inhibition at 10 µM ([8]; 10 μM, Expt. I): 18.6% | inhibition at 10 µM ([8]; 10 μM, Expt. II): 74.5% | inhibition at 20 µM ([8]; 20 μM, Expt. I): 100% | inhibition at 20 µM ([8]; 20 μM, Expt. II): 100% | inhibition at 50 µM ([8]; 50 μM, Expt. I): 100% | inhibition at 50 µM ([8]; 50 μM, Expt. II): 100% | IC50 [8, 11]: 7 µM | serum PGF2α ([9]; 1 mg/kg i.p., ± SE): 27 ± 2.9 ng/mL | serum PGF2α ([9]; 1 mg/kg p.o., ± SE): 28 ± 4.6 ng/mL | serum PGF2α ([9]; 3 mg/kg i.p., ± SE, p <0.05): 18 ± 1.5 ng/mL | serum PGF2α ([9]; 3 mg/kg p.o., ± SE): 19 ± 4.2 ng/mL | serum PGF2α ([9]; 10 mg/kg i.p., ± SE, p <0.01): 18 ± 2.9 ng/mL | serum PGF2α ([9]; 10 mg/kg p.o., ± SE, p <0.001): 12 ± 2.4 ng/mL | serum PGF2α ([9]; 30 mg/kg i.p., ± SE, p <0.001): 2 ± 1.6 ng/mL | serum PGF2α ([9]; 30 mg/kg p.o.): 0 ng/mL | serum PGF2α ([9]; 100 mg/kg i.p.): 0 ng/mL | serum PGF2α ([9]; 100 mg/kg p.o.): 0 ng/mL | ED50 ([9]; ip): 15 mg/kg | ED50 ([9]; po): 10 mg/kg | inhibition of human blood-platelet aggregation (in words) [10]: inhibit prostaglandin formation and human blood-platelet aggregation
